Assay results reported in patent US8871735B2, “Methods and compositions for providing cardiac protection” (University of Medicine and Dentistry of New Jersey, priority 2008, dated 2014).

Key:
[1] = test system: C57Bl/6 mice, chronic ISO infusion; experiment: Chronic ISO infusion heart failure model; assay type: in vivo, mouse
Text: ISO with or without AC5 inhibitors were chronically infused with osmotic mini-pump implanted subcutaneously at indicated doses for 1 week in c57Bl/6 mice. Mice were then subjected to echocardiography (a) and the hearts were removed and subjected to pathological examinations such as myocardial apoptosis (b) and fibrosis (c). n=4-8.
In C57Bl/6 mice, ISO with or without AC5 inhibitors or metoprolol were chronically infused with an osmotic mini-pump at the indicated doses for 1 week. Mice were then subjected to echocardiography (a) and heart tissue were subjected to a myocardial apoptosis assay (b). *, p<0.01 vs vehicle. #, p<0.05 vs vehicle. .dagger., p<0.01 vs ISO. .dagger-dbl., p<0.05 vs ISO. n=4-15. […] Comparisons between multiple groups were made using ANOVA with post-hoc tests.
Tenofovir diphosphate (PMPA-PP), zidovudine monophosphate (MP), zidovudine diphosphate (PP), zidovudine triphosphate (TP), famciclovir penciclovir and valaciclovir were purchased from Moravek. Formycin A (FMA) and Formycin B (FMB) were purchased from Berry and Associates. All other reagents were from Sigma unless specified. Long-term infusion of isoproterenol (Sigma, St. Louis, Mo.) was performed for 7 days at a dose of 60 mg/kg/d with or without AC5 inhibitors by using a miniosmotic pump (ALZET model 2001, DURECT Corp, Cupertino, Calif.). Control mice received vehicle in pumps. Pumps were removed 24 hours before biochemical and physiological studies. Experiments were performed in 3- to 5-month-old male C57Bl/6, and in AC5Tg transgenic mice. This study was approved by the Animal Care and Use Committee at New Jersey Medical School.
Mice were anesthetized with 2.5% tribromoethanol (0.010 to 0.015 mL per gram of body weight) injected intraperitoneally, and echocardiography was performed with ultrasonography (ACUSON Sequoia C256, Siemens Medical Solutions, Malvern, Pa.). For acute injection of isoproterenol, forskolin and milrinon, a PE-10 catheter was inserted into the right jugular vein, and drugs were injected at the rate of 1 μl/s. cAMP accumulation assay in H9C2 cells, a cardiac myoblast cell line, was examined as previously described.

[2] = test system: mice, chronic ISO infusion; experiment: Treadmill exercise tolerance after chronic ISO; assay type: in vivo, mouse
Protocol: Treadmill exercise tolerance was performed as previously described. One week after pump implantation, pumps were removed under anesthesia. The next day after removal, mice were placed on a custom-built four-lane treadmill with an infrared detection system above the shock stimulus at a starting speed of 2 m/min. Every two minutes, the speed was increased by 4 m/min for 16 min or until the mouse could no longer run.

Nc1ncnc2c1ncn2[C@@H]1O[C@H](CO)[C@@H](O)[C@@H]1O [Ara-Ade, 9-β-D-arabinofuranosyladenine]
ISO-induced decrease in LVEF (and FS) ([1]; ISO 60 mg/kg/d 7 days, Ara-Ade 20 and 100 mg/kg/day, 2′5′ ddAdo 20 mg/kg/day): rescued LVEF and FS reduction
ISO-induced cardiac fibrosis ([1]; chronic ISO infusion): significantly inhibited
ISO-induced myocardial apoptosis in vivo ([1]; chronic ISO infusion): significantly inhibited
ISO-induced wall thickening (DESP, DPW) ([1]; chronic ISO infusion): neither Ara-Ade nor 2′5′ ddAdo inhibited
LVW/BW and myocyte cross sectional area ([1]; chronic ISO infusion): increased
survival rate during 1-week chronic ISO ([1]; vs vehicle): higher
maximum velocity in the treadmill test [2]: rescued ISO-induced decrease in the maximum velocity
